# Test results from PMC13128454, “Mutant p53 protein accumulation is selectively targetable by proximity-inducing drugs” (Nature Chemical Biology, 2025).
# Values joined by “and” are separate entries in the source; they are usually repeats but may differ in a detail not shown here. Identical values can stand only once. Like-named read-outs stand apart in the source and are kept apart here.
# Assays:
# [1] = CellTiter-Glo cell viability; format: cell-based; conditions: human, p53_construct Mut, CTG 4 days, read-out: mean (normalized viability)
# [2] = tested on: Calu-1 cells stably expressing Halo–p53-R273H (FL)–mCherry–2A–mTagBFP2-V5; assay: CellTiter-Glo cell viability; format: cell-based; conditions: CTG 4 days; for replicates (raw CTG signal): p53_construct Mut
# [3] = tested on: Calu-1 cells stably expressing Halo–p53 WT (FL)–mCherry–2A–mTagBFP2-V5; assay: CellTiter-Glo cell viability; format: cell-based; conditions: for mean_norm: Cell_Type WT; for replicates (raw CTG signal): p53_construct WT, CTG 4 days
# Protocol: (§1) Cells were plated in 384-well plates (typically 1,500 cells per well) with varying concentrations of compounds, with a total volume of 50 μl per well. CTG reagent was added (25 μl) to the solutions, mixed and read out using an EnVision 2105 multimode plate reader.
# [4] = tested on: Calu-1 cells stably expressing Halo–p53-Y220C (FL)–mCherry–2A–mTagBFP2-V5; assay: CellTiter-Glo cell viability; format: cell-based; conditions: Cell_Type Y220C
# Protocol: as §1
# [5] = tested on: cancer cell lines across DepMap; design: method as in DepMap; conditions: antiproliferative; GDSC1; ref DepMap; read-out: median IC50 across DepMap; cited from earlier work
compound,measurement,setting,value
CC[C@@H]1C(=O)N(C)c2cnc(Nc3ccc(C(=O)NC4CCN(C)CC4)cc3OC)nc2N1C1CCCC1 [BI2536],viability at 4 days,[1]; Compound_conc 0.0488281,112%
same,viability at 4 days,[1]; Compound_conc 0.0976562,115%
same,viability at 4 days,[1]; Compound_conc 0.195312,107%
same,viability at 4 days,[1]; Compound_conc 0.390625,106%
same,viability at 4 days,[1]; Compound_conc 0.78125,119%
same,viability at 4 days,[1]; Compound_conc 1.5625,104%
same,viability at 4 days,[1]; Compound_conc 3.125,113%
same,viability at 4 days,[1]; Compound_conc 6.25,84.3%
same,viability at 4 days,[1]; Compound_conc 12.5,70.7%
same,viability at 4 days,[1]; Compound_conc 25,62%
same,viability at 4 days,[1]; Compound_conc 50,47.3%
same,viability at 4 days,[1]; Compound_conc 100,41.4%
same,differential proliferation effect,[2]; Calu-1 p53 WT versus p53-R273H,lacked a differential proliferation effect
same,replicates (raw CTG signal),[2]; Compound_conc 0.0488281,197890 and 183273 and 187583 and 162992
same,replicates (raw CTG signal),[2]; Compound_conc 0.0976562,191053 and 161144 and 203266 and 199816
same,replicates (raw CTG signal),[2]; Compound_conc 0.195312,176045 and 169600 and 186049 and 169525
same,replicates (raw CTG signal),[2]; Compound_conc 0.390625,185229 and 162171 and 189977 and 157434
same,replicates (raw CTG signal),[2]; Compound_conc 0.78125,218482 and 178554 and 204635 and 180452
same,replicates (raw CTG signal),[2]; Compound_conc 1.5625,174155 and 148473 and 186714 and 171263
same,replicates (raw CTG signal),[2]; Compound_conc 3.125,194944 and 176651 and 192942 and 172246
same,replicates (raw CTG signal),[2]; Compound_conc 6.25,144484 and 119258 and 155344 and 132872
same,replicates (raw CTG signal),[2]; Compound_conc 12.5,123471 and 113233 and 124855 and 101499
same,replicates (raw CTG signal),[2]; Compound_conc 25,102356 and 92186 and 120326 and 90854
same,replicates (raw CTG signal),[2]; Compound_conc 50,87813 and 79696 and 71081 and 71223
same,replicates (raw CTG signal),[2]; Compound_conc 100,63459 and 73795 and 72267 and 61765
same,mean_norm,[3]; Concentration 0.00976562,0.9965
same,mean_norm,[3]; Concentration 0.0195312,0.9819
same,mean_norm,[3]; Concentration 0.0390625,0.9464
same,mean_norm,[3]; Concentration 0.078125,0.9231
same,mean_norm,[3]; Concentration 0.15625,0.8923
same,mean_norm,[3]; Concentration 0.3125,0.9222
same,mean_norm,[3]; Concentration 0.625,0.8706
same,mean_norm,[3]; Concentration 1.25,0.9152
same,mean_norm,[3]; Concentration 2.5,0.732
same,mean_norm,[3]; Concentration 5,0.654
same,replicates (raw CTG signal),[3]; Compound_conc 0.0488281,244635 and 211925 and 234768 and 234225
same,replicates (raw CTG signal),[3]; Compound_conc 0.0976562,273323 and 237458 and 247150 and 303994
same,replicates (raw CTG signal),[3]; Compound_conc 0.195312,238397 and 225982 and 259666 and 218737
same,replicates (raw CTG signal),[3]; Compound_conc 0.390625,236109 and 227126 and 240832 and 277749
same,replicates (raw CTG signal),[3]; Compound_conc 0.78125,245303 and 237908 and 252002 and 245374
same,replicates (raw CTG signal),[3]; Compound_conc 1.5625,272283 and 224772 and 244085 and 261410
same,replicates (raw CTG signal),[3]; Compound_conc 3.125,243376 and 233836 and 240215 and 246677
same,replicates (raw CTG signal),[3]; Compound_conc 6.25,186650 and 172938 and 193716 and 217878
same,replicates (raw CTG signal),[3]; Compound_conc 12.5,153573 and 146180 and 148955 and 165621
same,replicates (raw CTG signal),[3]; Compound_conc 25,156770 and 147371 and 141939 and 149390
same,replicates (raw CTG signal),[3]; Compound_conc 50,121176 and 111722 and 112653 and 125709
same,replicates (raw CTG signal),[3]; Compound_conc 100,91299 and 91521 and 110253 and 107241
same,mean_norm,[4]; Concentration 0.00976562,1.033
same,mean_norm,[4]; Concentration 0.0195312,1.042
same,mean_norm,[4]; Concentration 0.0390625,1.012
same,mean_norm,[4]; Concentration 0.078125,1.001
same,mean_norm,[4]; Concentration 0.15625,1.013
same,mean_norm,[4]; Concentration 0.3125,0.9845
same,mean_norm,[4]; Concentration 0.625,0.8987
same,mean_norm,[4]; Concentration 1.25,0.7731
same,mean_norm,[4]; Concentration 2.5,0.741
same,mean_norm,[4]; Concentration 5,0.654
same,IC50,[5],11.8 nM
